These results are taken from patent EP0134485A2, “5-Cyclopropyl-5,8-dihydro-8-oxo-1,3-dioxolo-(4,5-g) quinoline-7-carboxylic acid, process for its preparation and bactericidal agent containing it” (BAYER AG, priority 1983, dated 1985).

SMILES strings stand for the structures. ≈ marks a conversion by molar mass, not a printed value.

Holding throughout (assay): Agar dilution test (MIC), Isosensitest medium
Holding throughout (type): cell-based
(Agar dilution tests growth on a series of plates holding different concentrations.)

The subject of one test is E. coli 455/7. The settings on record: Escherichia coli, strain E. coli 455/7, Denley multipoint inoculator, read-out: MHK. From the text: (§1) In der nachstehenden Tabelle sind die MHK-Werte der erfindungsgemäßen Verbindung angegeben.
For a further test, the system named is Proteus mir. 8223. The settings on record: strain Proteus mir. 8223, Denley multipoint inoculator, read-out: MHK.
From the text: as §1

The subject of another test is Proteus 8175. The settings on record: strain Proteus 8175, Denley multipoint inoculator, read-out: MHK.
From the text: as §1

Another test deals with Staph. aur. 133. The settings on record: strain Staph. aur. 133, Denley multipoint inoculator, read-out: MHK.
From the text: as §1

Another test deals with Klebsiella 6179. The settings on record: strain Klebsiella 6179, Denley multipoint inoculator, read-out: MHK.
From the text: as §1

The test system of the next test is Serratia 16040. The settings on record: strain Serratia 16040, Denley multipoint inoculator, read-out: MHK.
From the text: as §1

The subject of another test is Pseudom. W. The settings on record: strain Pseudom. W., Denley multipoint inoculator, read-out: MHK.
From the text: as §1

The subject of another test is Streptococc. faec. 9790. The settings on record: strain Streptococc. faec. 9790, Denley multipoint inoculator, read-out: MHK.
From the text: as §1

In the case of `O=C(O)c1cn(C2CC2)c2cc3c(cc2c1=O)OCO3` [I, 5-Cyclopropyl-5,8-dihydro-8-oxo-1,3-dioxolo[4,5-g]chinolin-7-carbonsäure], the MIC turned out to be 16 µg/mL (≈ 58.6 µM) in the test on E. coli 455/7; 8 µg/mL (≈ 29.3 µM) with Proteus mir. 8223; 0.03 µg/mL (≈ 0.11 µM) in the test on Proteus 8175; 0.25 µg/mL (≈ 0.915 µM) in the test with Staph. aur. 133; 0.06 µg/mL (≈ 0.22 µM) in the test on Klebsiella 6179; 4 µg/mL (≈ 14.6 µM) with Serratia 16040. Further, the MIC with Pseudom. W. was determined as 4 µg/mL (≈ 14.6 µM); with Streptococc. faec. 9790, 8 µg/mL (≈ 29.3 µM).
